{"source": "patent US8697888B2", "about": "“Substituted (1-(methylsulfonyl)azetidin-3-yl)(heterocycloalkyl)methanone analogs as antagonists of muscarinic acetylcholine M1 receptors” (Vanderbilt University, priority 2012, dated 2014)", "molecular_target": "T1, mAChR M1 (UniProt P11229)", "T1 sequence (P11229 1-460)": "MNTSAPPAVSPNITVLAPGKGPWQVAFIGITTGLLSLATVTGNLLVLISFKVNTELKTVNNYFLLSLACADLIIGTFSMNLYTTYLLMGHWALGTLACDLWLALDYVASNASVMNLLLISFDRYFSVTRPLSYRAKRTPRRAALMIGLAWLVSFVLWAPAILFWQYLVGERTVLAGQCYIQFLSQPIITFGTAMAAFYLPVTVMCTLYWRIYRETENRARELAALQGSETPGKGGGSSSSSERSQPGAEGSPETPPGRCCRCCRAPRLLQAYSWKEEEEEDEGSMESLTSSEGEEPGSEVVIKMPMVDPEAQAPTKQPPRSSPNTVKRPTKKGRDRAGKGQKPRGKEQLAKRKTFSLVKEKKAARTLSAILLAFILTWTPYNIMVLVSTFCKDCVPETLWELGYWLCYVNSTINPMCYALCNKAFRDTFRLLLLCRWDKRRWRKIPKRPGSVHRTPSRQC", "assay": "mAChR M1 cell-based functional assay (calcium mobilization, antagonist mode)", "details": "for IC50: concentration of antagonist decreasing calcium flux by 50%, EC80 acetylcholine response, CHO-K1 cells expressing mAChR M1, read-out: Potency (IC50)", "text": "Chinese hamster ovary (CHO-K1) cells stably expressing rat (r)M1 were purchased from the American Type Culture Collection and cultured according to their indicated protocol. CHO cells stably expressing human (h)M2, hM3, and hM5 were described previously (Levey, et al., 1991); hM1 and hM4 cDNAs were purchased from Missouri S&T cDNA Resource; rM4 cDNA was provided by T. I. Bonner (National Institutes of Health, Bethesda, Md.). rM2 and rM3 were cloned from a rat brain cDNA library and sequence verified. hM1, rM2, rM3, hM4, and rM4 cDNAs were used to stably transfect CHO-K1 cells purchased from the American Type Culture Collection using Lipofectamine-2000. To make stable rM2, hM2, rM3, hM4, and rM4 cell lines for use in calcium mobilization assays, these cells also were stably transfected with a chimeric G-protein (Gqi5) (provided by B. R. Conklin, University of California, San Francisco) using Lipofectamine 2000. rM1, hM1, rM3, hM3, rM5, and hM5 cells were grown in Ham's F-12 medium containing 10% heat-inactivated fetal bovine serum (FBS), 20 mM HEPES, and 50 μg/mL G418 sulfate. rM2-Gqi5, hM2-Gqi5, and hM4-Gqi5 cells were grown in the same medium also containing 500 μg/mL Hygromycin B. Stable rM4-Gqi5 cells were grown in DMEM containing 10% heat-inactivated FBS, 20 mM HEPES, 400 μg/mL G418 sulfate, and […].\nFor high throughput measurement of antagonist inhibited increases in intracellular calcium, CHO-K1 cells stably expressing muscarinic receptors were plated in growth medium lacking G418 and hygromycin at 15,000 cells/20 μL/well in Greiner 384-well black-walled, tissue culture (TC)-treated, clear-bottom plates (VWR). Cells were incubated overnight at 37° C. and 5% CO2. The next day, cells were washed using an ELX 405 (BioTek) with four washes (80 μL) of assay buffer then aspirated to 20 μL. Next, 20 μL of 16 μM Fluo-4/acetoxymethyl ester (Invitrogen, Carlsbad, Calif.) prepared as a 2.3 mM stock in DMSO and mixed in a 1:1 ratio with 10% (w/v) Pluronic F-127 and diluted in assay buffer was added to the wells and the cell plates were incubated for 50 min at 37° C. and 5% CO2. Dye was removed by washing with the ELX 405 (four 80 μL washes of assay buffer) then aspirated to 20 μL. Compound master plates were formatted in an 11 point CRC format (1:3 dilutions) in 100% DMSO with a starting concentration of 10 mM using the BRAVO liquid handler (Agilent). Test compound CRCs were then transferred to daughter plates (240 nL) using the Echo acoustic plate reformatter (Labcyte, Sunnyvale, Calif.) and then diluted into assay buffer (40 μL) to a 2× stock using a Thermo Fisher Combi (Thermo Fisher Scientific, Waltham, Mass.).\nCalcium flux was measured using the Functional Drug Screening System (FDSS) 6000 (Hamamatsu Corporation, Tokyo, Japan) as an increase in the fluorescent static ratio. Compounds were applied to cells (20 μL, 2×) using the automated system of the FDSS 6000 at 4 s into the 300 s protocol and the data were collected at 1 Hz. At 144 s into the 300 s protocol, 10 μL of an EC20 concentration of the muscarinic receptor agonist acetylcholine was added (5×), followed by the addition of 12 μL an EC80 concentration of acetylcholine at the 230 s time point (5×). Agonist activity was analyzed as a concentration-dependent increase in calcium mobilization upon compound addition. Positive allosteric modulator activity was analyzed as a concentration-dependent increase in the EC20 acetylcholine response. Antagonist activity was analyzed as a concentration-dependent decrease in the EC80 acetylcholine response. Concentration-response curves were generated using a four-parameter logistical equation in XLfit curve fitting software (IDBS, Bridgewater, N.J.) for Excel (Microsoft, Redmond, Wash.) or Prism (GraphPad Software, Inc., San Diego, Calif.).\nThe calcium mobilization assay was used to determine “potency”.", "key": {"[1]": {"details": "activity remaining at top dose of 30 μM test compound, as percentage of the response to an approx. EC80 concentration of ACh"}, "[2]": {"details": "dash = baseline or about zero remaining activity (table footnote)"}}, "data": [{"smiles": "CN1CCOc2cc(S(=O)(=O)N3CC(C(=O)N4CCN(c5ccncc5)CC4)C3)cnc21", "note": "[B73]", "values": [{"measurement": "Remaining Activity (%)", "setting": "[1]", "value": "≧80%"}, {"measurement": "IC50", "value": "> 10000", "unit": "nM"}]}, {"smiles": "O=C(C1CN(S(=O)(=O)c2cccc3cnc(Cl)cc23)C1)N1CCN(c2ccncc2)CC1", "note": "[B19]", "values": [{"measurement": "IC50", "value": 780, "unit": "nM"}, {"measurement": "Remaining Activity (%)", "setting": "[2]", "value": "— (Unless otherwise indicated with a numerical value, the percent remaining activity is baseline or about zero, i.e. as indicated by “—”)"}]}, {"smiles": "O=C(C1CN(S(=O)(=O)c2cccnc2)C1)N1CCN(c2ccncc2)CC1", "note": "[B10]", "values": [{"measurement": "IC50", "value": 350, "unit": "nM"}, {"measurement": "Remaining Activity (%)", "setting": "[2]", "value": "— (Unless otherwise indicated with a numerical value, the percent remaining activity is baseline or about zero, i.e. as indicated by “—”)"}]}, {"smiles": "O=C(C1CN(S(=O)(=O)c2cccc3nonc23)C1)N1CCN(c2ccc(Br)cn2)CC1", "note": "[B11]", "values": [{"measurement": "IC50", "value": 350, "unit": "nM"}, {"measurement": "Remaining Activity (%)", "setting": "[2]", "value": "— (Unless otherwise indicated with a numerical value, the percent remaining activity is baseline or about zero, i.e. as indicated by “—”)"}]}, {"smiles": "CN1CCN(C(=O)C2CN(S(=O)(=O)c3cccc4cnccc34)C2)CC1", "note": "[B80]", "values": [{"measurement": "Remaining Activity (%)", "setting": "[1]", "value": "≧80%"}, {"measurement": "IC50", "value": "> 10000", "unit": "nM"}]}, {"smiles": "O=C(C1CN(S(=O)(=O)c2cccc(Cl)c2Cl)C1)N1CC2CN(c3ccncc3)CC2C1", "note": "(centres unmarked) [B58]", "values": [{"measurement": "Remaining Activity (%)", "setting": "[2]", "value": "— (Unless otherwise indicated with a numerical value, the percent remaining activity is baseline or about zero, i.e. as indicated by “—”)"}]}, {"smiles": "O=C(C1CN(S(=O)(=O)C2CCOCC2)C1)N1CCN(c2ccncc2)CC1", "note": "[B81]", "values": [{"measurement": "Remaining Activity (%)", "setting": "[1]", "value": "≧80%"}, {"measurement": "IC50", "value": "> 10000", "unit": "nM"}]}, {"smiles": "CC(C)(C)CS(=O)(=O)N1CC(C(=O)N2CCN(c3ccncc3)CC2)C1", "note": "[B43]", "values": [{"measurement": "Remaining Activity (%)", "setting": "[1]", "value": 43, "unit": "%"}, {"measurement": "IC50", "value": "> 10000", "unit": "nM"}]}, {"smiles": "O=C(C1CN(S(=O)(=O)c2ccc3[nH]ncc3c2)C1)N1CCN(c2ccncc2)CC1", "note": "[B76]", "values": [{"measurement": "Remaining Activity (%)", "setting": "[1]", "value": "≧80%"}, {"measurement": "IC50", "value": "> 10000", "unit": "nM"}]}, {"smiles": "Cc1cnccc1N1CCN(C(=O)C2CN(S(=O)(=O)c3cccc4cnccc34)C2)CC1", "note": "[B13]", "values": [{"measurement": "IC50", "value": 390, "unit": "nM"}, {"measurement": "Remaining Activity (%)", "setting": "[2]", "value": "— (Unless otherwise indicated with a numerical value, the percent remaining activity is baseline or about zero, i.e. as indicated by “—”)"}]}, {"smiles": "O=C(C1CN(S(=O)(=O)c2ccccc2OC(F)(F)F)C1)N1CCN(c2ccncc2)CC1", "note": "[B29]", "values": [{"measurement": "IC50", "value": 2800, "unit": "nM"}, {"measurement": "Remaining Activity (%)", "setting": "[2]", "value": "— (Unless otherwise indicated with a numerical value, the percent remaining activity is baseline or about zero, i.e. as indicated by “—”)"}]}, {"smiles": "Cc1cc(N2CCN(C(=O)C3CN(S(=O)(=O)c4cccc5cnccc45)C3)CC2)cc(C)n1", "note": "[B14]", "values": [{"measurement": "IC50", "value": 460, "unit": "nM"}, {"measurement": "Remaining Activity (%)", "setting": "[2]", "value": "— (Unless otherwise indicated with a numerical value, the percent remaining activity is baseline or about zero, i.e. as indicated by “—”)"}]}, {"smiles": "O=C(C1CN(S(=O)(=O)c2cccc3nsnc23)C1)N1CCN(c2ccncc2)CC1", "note": "[B28]", "values": [{"measurement": "IC50", "value": 2200, "unit": "nM"}, {"measurement": "Remaining Activity (%)", "setting": "[2]", "value": "— (Unless otherwise indicated with a numerical value, the percent remaining activity is baseline or about zero, i.e. as indicated by “—”)"}]}, {"smiles": "O=C(C1CN(S(=O)(=O)c2ccncc2)C1)N1CCN(c2ccncc2)CC1", "note": "[B67]", "values": [{"measurement": "Remaining Activity (%)", "setting": "[1]", "value": "≧80%"}, {"measurement": "IC50", "value": "> 10000", "unit": "nM"}]}, {"smiles": "COc1ccc(S(=O)(=O)N2CC(C(=O)N3CCN(c4ccncc4)CC3)C2)cn1", "note": "[B38]", "values": [{"measurement": "Remaining Activity (%)", "setting": "[1]", "value": 23, "unit": "%"}, {"measurement": "IC50", "value": "> 10000", "unit": "nM"}]}, {"smiles": "O=C(C1CN(S(=O)(=O)C2CCCCC2)C1)N1CCN(c2ccncc2)CC1", "note": "[B47]", "values": [{"measurement": "Remaining Activity (%)", "setting": "[1]", "value": 50, "unit": "%"}, {"measurement": "IC50", "value": "> 10000", "unit": "nM"}]}, {"smiles": "O=C(C1CN(S(=O)(=O)c2cccc3nonc23)C1)N1CCN(c2nccs2)CC1", "note": "[B33]", "values": [{"measurement": "Remaining Activity (%)", "setting": "[1]", "value": 48, "unit": "%"}, {"measurement": "IC50", "value": "> 10000", "unit": "nM"}]}, {"smiles": "Cn1ccnc1N1CCN(C(=O)C2CN(S(=O)(=O)c3cccc4nonc34)C2)CC1", "note": "[B62]", "values": [{"measurement": "Remaining Activity (%)", "setting": "[1]", "value": "≧80%"}, {"measurement": "IC50", "value": "> 10000", "unit": "nM"}]}]}
